Tests used:
RB pocket domain / E2F-1 = assay: SPR competition of TpGcpE with E2F-1 for the RB pocket domain; type: binding, human; conditions: TpGcpE bound to saturation, then E2F-1 added
Text: In order to map the site of the interaction of the LXCXE motif with the RB pocket domain, we used SPR to test the ability of full-length TpGcpE protein to compete with two proteins that have known, well-characterized interactions with the RB pocket domain, E2F1 and HDAC1. The RB pocket domain was coupled to the surface of the sensor chip, and purified, recombinant, full-length TpGcpE was introduced into the flow channel to bind the RB pocket domain to saturation; then either purified, recombinant E2F-1 or HDAC1 was added to the channel and the response curve recorded to determine if they competed withTpGcpE binding.
(a) A kinetic surface plasmon resonance binding curve (sensorgram) of full-length HDAC1 to the RB pocket domain is shown. (b) Kinetic binding curve of full-length HDAC1 in competition with full-length TpMuguga02_00667 (TpGcpE). (c) A sensorgram of full-length E2F1 to the RB pocket domain is shown. […]
(§1) Kinetics analysis of binding. […] The analytes (60 µl each, 0–25 µM in HBS-EP buffer with 0.05% P20) were injected into flow cell and the association of analyte and ligand were recorded respectively by surface plasmon resonance (SPR) with a Biacore T200 (Biacore, Inc., New Jersey). […]
(§2) Data analysis. Sensorgrams of the interaction generated by the instrument were analyzed using the software BIAeval 3.2 (Biacore Inc., New Jersey). […]

[1] = biological target: T1, Retinoblastoma-1 (RB) pocket domain (Homo sapiens, UniProt P06400); assay: Surface plasmon resonance binding to RB pocket domain; conditions: SPR, RB pocket domain on sensor chip; sequence-scrambled peptides as negative controls
T1 construct: Recombinant, purified RB pocket domain was coupled to the surface of the sensor chip; purchased LDBiopharma HTF-1035
T1 sequence (P06400 373-771 limits assumed): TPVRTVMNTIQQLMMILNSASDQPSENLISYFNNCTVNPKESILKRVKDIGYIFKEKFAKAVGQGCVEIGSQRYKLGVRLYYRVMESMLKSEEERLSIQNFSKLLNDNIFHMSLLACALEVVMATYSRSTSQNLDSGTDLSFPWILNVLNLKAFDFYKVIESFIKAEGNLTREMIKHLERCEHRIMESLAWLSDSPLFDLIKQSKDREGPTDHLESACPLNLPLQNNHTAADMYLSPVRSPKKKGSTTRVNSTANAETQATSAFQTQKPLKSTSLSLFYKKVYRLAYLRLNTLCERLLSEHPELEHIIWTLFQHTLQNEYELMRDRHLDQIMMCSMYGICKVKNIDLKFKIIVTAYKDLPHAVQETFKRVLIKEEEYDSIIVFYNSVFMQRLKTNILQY
Text: Since the proliferation of T. parva-infected host cells is thought to be critical for the pathogenesis of infection, we investigated whether synthesized peptides, each 9 to 19 amino acids long and containing these 15 T. parva motifs, could bind to RB (Supplementary Table 1). Surface plasmon resonance (SPR) was used to screen these peptides for specific RB1 pocket domain-binding activity. Recombinant, purified RB pocket domain was coupled to the surface of the sensor chip, and purified peptides were introduced at various concentrations to quantify kinetics if response curves indicated a detectable protein-protein interaction. Sequence-scrambled peptides were used as negative controls to exclude false-positive signals.
Immobilization of human RB1 protein to CM5 chip
Surface preparation. […]
as §1, §2

[2] = test system: E2F activity in T. annulata-infected macrophages; assay: E2F-luc reporter assay, T. annulata-transformed macrophages (Ode); type: cell-based, bovine; conditions: 1 μM penetrating peptide, 2 hrs
Experimental: (§3) Since no system for genetic manipulation is available yet for intracellular Theileria, we instead incubated T. parva- and T. annulata-infected bovine leukocytes (transfected with a luciferase reporter regulated from an E2F promoter) with synthesized peptides containing the RB-binding LXCXE motif, or a mutated LXNXE negative control, linked to a cell-penetrating peptide. If the LXCXE-containing peptide can regulate E2F activity in a sequence-specific manner, we would expect it to increase E2F activity, and that this effect would be reduced or abrogated in the mutated LXNXE peptide-treated group.
(a) TpMD409B.2 cells were transfected with E2F-luc (WT = wild-type E2F binding construct), or mutated E2F-luc constructs (labeled ‘mutated’) together with a CMV-lacZ plasmid to normalize for transfection efficiency. Luciferase and β-galactosidase activities were measured 24 hrs after transfection. E2F-luc relative luciferase activity normalized to mE2F-luc. Shown is the average of 3 independent experiments with standard deviation. BL20 or TBL20 cells were treated with (b) 1μM of penetrating peptides ([…]-K(FITC)) containing the TpGcpE LXCXE motif, or an LXNXE control ([…]-K(FITC)) or (c) E2F inhibitor or DMSO control, and then counted by hemacytometer after the indicated timepoints. […] Then, cells were treated with penetrating peptides as in (b) for 2 hrs and luciferase activity was quantified. […]

BL20/TBL20 cells = type: cell-based, bovine; conditions: penetrating peptides, 24 h and 48 h; data not shown
Experimental: Since the LXCXE peptide can induce E2F activity, we investigated whether it could, on its own, increase bovine leukocyte proliferation. To extend our observations to T. annulata-infected leukocytes, we incubated T. annulata-infected B cells with WT or mutated LXNXE peptides and counted cell numbers at 24 h and 48 h.
The amino acid sequence of RB-1 based on the parasite sequence ([…]) was synthesized. Cysteine in wild type RB1 was replaced by an Asparagine (N; in bold […]). The penetrating peptide to facilitate cell entry is underlined. 3 different concentrations of peptides were used for 2 h to determine the minimum effective concentration (1 μM) with minimum toxic effect, which was used to perform each experiment as indicated.

[3] = test system: E2F activity in T. parva-infected B cells; assay: E2F-luc reporter assay, T. parva-infected B cells; type: cell-based, bovine; conditions: penetrating peptide
Experimental: as §3
(§4) TpMD409.B2 cells were co-transfected with 20 μg (E2F-luc, mE2F-luc), or 10 μg (cyclin E-luc) reporter construct, 20 μg of expression vector and 5 μg of pCMV-lacZ, where indicated. Luciferase and β-galactosidase activities were measured 24 h after transfection according to previously published procedures. TpMD409.B2 cells were also co-transfected with pCMV-HA-DP-1 D103–126 and c-myc-luciferase as previously described.
The amino acid sequence of RB-1 based on the parasite sequence ([…]) was synthesized. Cysteine in wild type RB1 was replaced by an Asparagine (N; in bold […]). The penetrating peptide to facilitate cell entry is underlined. […]

[4] = test system: E2F activity in T. annulata-infected B cells; assay: E2F-luc reporter assay, T. annulata-infected B cells (TBL20); type: cell-based, bovine; conditions: for E2F reporter activity: T. annulata-infected B cells, E2F-luc, 1 μM penetrating peptide, 2 hrs
Experimental: as §3
(a) TpMD409B.2 cells were transfected with E2F-luc (WT = wild-type E2F binding construct), or mutated E2F-luc constructs (labeled ‘mutated’) together with a CMV-lacZ plasmid to normalize for transfection efficiency. Luciferase and β-galactosidase activities were measured 24 hrs after transfection. E2F-luc relative luciferase activity normalized to mE2F-luc. Shown is the average of 3 independent experiments with standard deviation. BL20 or TBL20 cells were treated with (b) 1μM of penetrating peptides ([…]-K(FITC)) containing the TpGcpE LXCXE motif, or an LXNXE control ([…]-K(FITC)) or (c) E2F inhibitor or DMSO control, and then counted by hemacytometer after the indicated timepoints. Shown is the average of 3 independent experiments with standard deviation. Then, either (d) virulent Ode T. annulata-transformed macrophages, or (e) BL20/TBL20 T. annulata-transformed cells were transfected with E2F-luc plasmid (or mutated E2F-luc as in (c)) and incubated for 24 hrs at 37 °C. Then, cells were treated with penetrating peptides as in (b) for 2 hrs and luciferase activity was quantified. […]
as §4, with “TpMD409.B2 cells were also co-transfected with pCMV-HA-DP-1 D103–126 and c-myc-luciferase as previously described.” left out

RB-HDAC1 = RB-HDAC1 binding with penetrating peptides; type: cell-based; conditions: discussion statement
[5] = test system: T. annulata-infected TBL20 cells; assay: Cell proliferation, T. annulata-infected B cells (TBL20), hemacytometer count; type: cell-based, bovine
Experimental: (a) TpMD409B.2 cells were transfected with E2F-luc (WT = wild-type E2F binding construct), or mutated E2F-luc constructs (labeled ‘mutated’) together with a CMV-lacZ plasmid to normalize for transfection efficiency. Luciferase and β-galactosidase activities were measured 24 hrs after transfection. E2F-luc relative luciferase activity normalized to mE2F-luc. Shown is the average of 3 independent experiments with standard deviation. BL20 or TBL20 cells were treated with (b) 1μM of penetrating peptides ([…]-K(FITC)) containing the TpGcpE LXCXE motif, or an LXNXE control ([…]-K(FITC)) or (c) E2F inhibitor or DMSO control, and then counted by hemacytometer after the indicated timepoints. Shown is the average of 3 independent experiments with standard deviation. Then, either (d) virulent Ode T. annulata-transformed macrophages, or (e) BL20/TBL20 T. annulata-transformed cells were transfected with E2F-luc plasmid (or mutated E2F-luc as in (c)) and incubated for 24 hrs at 37 °C. Then, cells were treated with penetrating peptides as in (b) for 2 hrs and luciferase activity was quantified. Data shown are representative of three independent experiments done with biological duplicates, with mean + standard deviation (*P-value < 0.05 compared to untreated; ^‡P-value < 0.05 compared to its respective BL20 control).
The TpMD409.B2 cell line is a T. parva Muguga-infected B-cell clone (B2) whose establishment, phenotypic characteristics and culture conditions have been described[25]–[27]. BL20 cells are a retrovirus-transformed B cell line isolated from an infected cow. To eliminate the parasite, cells were treated for the indicated time with buparvaquone (50 ng/ml, 1 mg/ml stock in ethanol; Sigma). To inhibit E2F activity, cells were treated for the indicated time with HLM006474 (10 μM in DMSO, Sigma), or DMSO (10μM; Sigma) as a control. The T. annulata-infected cell lines BL20 (B cell), as well as Ode (macrophage) cell lines are well described and characterized.
The amino acid sequence of RB-1 based on the parasite sequence ([…]) was synthesized. Cysteine in wild type RB1 was replaced by an Asparagine (N; in bold […]). The penetrating peptide to facilitate cell entry is underlined.

Which results are given for “E2F1: host E2F transcription factor, known RB pocket domain binder”?
competition with E2F-1 for RB pocket domain binding (RB pocket domain / E2F-1): does not compete with full-length TpGcpE for binding to the RB pocket domain; RB binding in words [1]: binding to the RB pocket domain

“VKKKKIKREIKIYIEEVFTPLVLKNKELK-K(FITC) [LXNXE peptide, penetrating peptide with mutated LXNXE motif, negative control]” was tested. Which E2F reporter activity [2] did it give?
Its E2F reporter activity is “did not show the same reporter activity as the LXCXE peptide”.

What about the cell viability (BL20/TBL20 cells) of the same substance?
The cell viability was “no effect on cell viability”.

What about the E2F reporter activity [3] of the same substance?
The E2F reporter activity was “did not show the same reporter activity as the LXCXE peptide”.

What about the E2F reporter activity [4] of the same substance?
The E2F reporter activity was “did not show the same reporter activity as the LXCXE peptide”.

What does the source list for “VKKKKIKREIKIYIEEVFTPLVLKCKELK-K(FITC) [LXCXE peptide, penetrating peptide containing the TpGcpE LXCXE motif, used in cells]”?
RB-HDAC1 binding (RB-HDAC1): block RB-HDAC1 binding; E2F reporter activity [2]: increased E2F activity; cell viability (BL20/TBL20 cells): no effect on cell viability; E2F reporter activity [4]: increased E2F activity; E2F-driven transcription ([4]; discussion statement, infected leukocytes): activate E2F-driven transcription; proliferation (cell number) ([5]; T. annulata-infected B cells, 1 μM penetrating peptide, 24 h and 48 h, average of 3 independent experiments): induced a significant increase in proliferation; infected leukocyte proliferation ([5]; discussion statement): promote infected leukocyte proliferation
